Assay [1] concerns the target T1, C5a receptor (Homo sapiens, UniProt P21730).
T1 sequence (P21730 1-350): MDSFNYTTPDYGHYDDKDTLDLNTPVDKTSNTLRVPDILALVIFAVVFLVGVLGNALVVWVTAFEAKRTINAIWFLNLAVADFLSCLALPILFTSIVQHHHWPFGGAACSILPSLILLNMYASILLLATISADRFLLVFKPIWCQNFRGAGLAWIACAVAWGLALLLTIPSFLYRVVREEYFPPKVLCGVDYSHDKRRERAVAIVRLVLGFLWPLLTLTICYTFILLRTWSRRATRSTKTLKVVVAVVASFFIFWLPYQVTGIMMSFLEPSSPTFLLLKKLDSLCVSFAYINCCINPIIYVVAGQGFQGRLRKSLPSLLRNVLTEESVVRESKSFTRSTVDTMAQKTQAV
Briefly: [125I]-C5a Radioligand Binding Assay (competition binding, differentiated U937 cells).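 On all read-outs here: cells preincubated with compound 30 min at room temperature, then 60 min at 4 °C with radioligand, bound counts read by scintillation, nonspecific binding defined with 100 nM C5a.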 The conditions noted are these: for inhibition at 1 µM: read-out: [125I]-C5a Binding % Inhibition 1 μM, test compound 1 μM; for inhibition at 1 µM / inhibition at 10 µM / [125I]-C5a Binding % Inhibition 1 μM / [125I]-C5a Binding % Inhibition 10 μM: [125I]-C5a 0.05 nM, U937 cells, multiple values = duplicate experiments; for inhibition at 10 µM: read-out: [125I]-C5a Binding % Inhibition 10 μM, test compound 10 μM; for [125I]-C5a Binding % Inhibition 1 μM: test compound 1 μM; for [125I]-C5a Binding % Inhibition 10 μM: test compound 10 μM.
Protocol: Competition binding assays for C5a receptors were performed by incubation of differentiated U937 cells (200,000 cells/well), test compound (1% DMSO) and [^125I]-C5a (Bolton & Hunter labeled, Perkin Elmer, specific activity=2200 Ci/mmol, 0.05 nM final) in binding buffer consisting of 50 mM HEPES, 5 mM MgCl2, 1 mM CaCl2, 0.5% protease-free BSA, 0.02% NaN3, pH 7.4. 100× solutions of test compounds were prepared in DMSO and further diluted in binding buffer. Non-specific binding was defined in wells containing 100 nM recombinant C5a. Cells and compound were pre-incubated for 30 min at RT. After addition of the radioligand, further incubation for 60 min occurred at 4° C. Cells were harvested on GF/B filters—presoaked in 0.5% polyethylenimine, followed by washing with binding buffer containing 500 mM NaCl, pH 7.4. Filter bound radioactivity was determined by liquid scintillation counting. IC50 and Ki values were calculated using non-linear regression in Graphpad Prism. Ki is calculated using the equation of Cheng and Prusoff (Biochem. Pharmacol. 1973, 22: 3099-3108)

Assay [2] addresses T1, C5a receptor. Put plainly: Calcium Mobilization Assay (C5a-induced Ca2+ mobilization, FLIPR, differentiated U937 cells). Format: cell-based. Details: endogenous in cells; host or cells: U937 cells differentiated with dibutyryl cAMP. The conditions noted are these: […] recombinant human C5a, 20 min pre-incubation, multiple values = duplicate experiments, read-out: C5a Induced Ca Mobil. Average IC50. The procedure: U937 cells (human monocytic cell line) were cultured in RPMI-1640 medium supplemented with 10% fetal bovine serum, 10 mM HEPES, 0.11 g/L pyruvate, 0.29 g/L L-glutamine, 100 IU/mL penicillin G and […] streptomycin. Dibutyryl cAMP (1 mM) was added to induce differentiation 2 or 3 days prior to loading the cells with 4.4 μM Fluo-3AM (Molecular Probes) for 30 min at 37° C. in RPMI medium containing 20 mM HEPES, 0.1% bovine serum albumin (BSA) and 5 mM probenecid. After washing, cells were dissolved at 2×10^6 cells/ml in HBSS buffer (Invitrogen 14190-094) supplemented with 10 mM HEPES, 2.5 mM probenecid and 0.1% BSA (pH=7.4), and sedimented by 1 min centrifugation (1500 rpm) in black 96-well plates (Costar) (200,000 cells/well). A 100× concentration range of test compounds was prepared in DMSO and further diluted in HBSS buffer. U937 cells were pre-incubated with compound for 20 minutes at room temperature (1% DMSO), before recombinant human C5a (Sigma) was added to the cells (1.5 nM). Changes in intracellular free Ca^2+ concentration were measured using the Fluorescent Imaging Plate Reader (FLIPR, Molecular Devices). Fluorescence was recorded every second from 10 seconds before the addition of C5a until 2 min after the addition. The maximal fluorescence obtained during this time frame was used for further calculations.
On the technique in general: Calcium flux is commonly read through the fluorescence of an indicator in the cells.

Several values for one entry are separate records, joined by “and”; a condition that tells them apart may be missing. Identical values can stand only once. Bounds are passed on as bounds.

With `CCc1cccc(CC)c1-c1cc(OC)c2c(n1)CCCC2N1CCc2cccc(C(=O)OC)c2C1` (stereo not shown) [Compound 44], in assay [1], the inhibition (usually the relative decrease from the control value, in per cent) at 1 µM was determined as 77% and the inhibition at 10 µM amounted to 87%. In assay [2], the IC50 (commonly the midpoint of a concentration-inhibition curve) was 839 nM. Regarding `CCc1cccc(CC)c1-c1cc(OC)c2c(n1)CCCC2N(C)c1cc(OC)ccc1OC` (stereo not shown) [Compound 68], in assay [1], the inhibition at 1 µM is 66% and the inhibition at 10 µM worked out at 76%. Also, the IC50 in assay [2] came out at 2570 nM.

For the molecule `CCOC(=O)c1ccccc1OC1CCCc2nc(-c3c(CC)cccc3CC)cc(OC)c21` (stereo not shown) [Compound 150], in assay [2], the IC50 is more than 10000 nM.

On to `CCc1cccc(CC)c1-c1cc(OC)c2c(n1)CCCC2Nc1cnccc1CO` (stereo not shown) [Compound 71], for which the IC50 in assay [2] came out at 3470 nM.

For the molecule `CCc1cccc(CC)c1-c1cc(OC)c2c(n1)CCCC2Oc1ccccc1CCO` (stereo not shown) [Compound 64], in assay [2], the IC50 was 2390 nM. Turning to `CCc1cccc(CC)c1-c1cc(OC)c2c(n1)CCCC2Nc1ccc(CO)cc1C` (stereo not shown) [Compound 141], the IC50 in assay [2] was more than 10000 nM.

For the molecule `CCc1cccc(CC)c1-c1cc(OC)c2c(n1)CCCC2N1CCc2cc(OC)c(OC)cc2C1` (stereo not shown) [Compound 127], in assay [1], the inhibition at 1 µM was -9% and the inhibition at 10 µM came to 42%. Consider `CCc1cccc(CC)c1-c1cc(OC2CCCC2)c2c(n1)CCCC2Nc1cc(OC)ccc1C` (stereo not shown) [Compound 17], for which, in assay [2], the IC50 came to 134 nM. `CCc1cccc(CC)c1-c1cc(OC)c2c(n1)CCCC2N(CC)c1cccc2ccccc12` (racemic) [Compound 12, (±)-[2-(2,6-Diethyl-phenyl)-4-methoxy-5,6,7,8-tetrahydro-quinolin-5-yl]-ethyl-naphthlen-1-yl-amine]: in assay [1], the inhibition at 1 µM is 94%; the inhibition at 10 µM came out at 97%; the “[125I]-C5a Binding % Inhibition 1 μM” value was 88% and 98% and 101% and 100% and 81%; the “[125I]-C5a Binding % Inhibition 10 μM” value was 92% and 102, 102, % and 90%.

`CCc1cccc(CC)c1-c1cc(OC)c2c(n1)CCCC2Oc1cc(OC)ccc1C=O` (stereo not shown) [Compound 143]: in assay [2], the IC50 is more than 10000 nM.

On to `CCc1cccc(CC)c1-c1cc(OC2CCCC2)c2c(n1)CCCC2N(CC)c1cccc2ccccc12` (stereo not shown) [Compound 6], for which the IC50 in assay [2] was found to be 37 nM.

`CCc1cccc(CC)c1-c1cc(OC)c2c(n1)CCCC2N1CCc2ccc(OC)cc2C1` (stereo not shown) [Compound 100]: in assay [1], the inhibition at 1 µM is 70% and the inhibition at 10 µM is 82%.

`CCc1cccc(CC)c1-c1cc(OC)c2c(n1)CCCC2Oc1ccccc1CO` (stereo not shown) [Compound 139]: in assay [2], the IC50 is more than 10000 nM. Take `CCc1cccc(CC)c1-c1cc(OC)c2c(n1)CCCC2N(C)c1cc(-c2ccccc2)ccc1C` (stereo not shown) [Compound 122]: in assay [1], the inhibition at 1 µM amounted to 81% and the inhibition at 10 µM turned out to be 84%. Turning to `CCN(c1cccc2ccccc12)C1CCCc2nc(-c3ccsc3)cc(OC)c21` (stereo not shown) [Compound 134], in assay [1], the inhibition at 1 µM was -8% and the inhibition at 10 µM worked out at 40%. Regarding `CCc1cccc(CC)c1-c1cc(OC)c2c(n1)CCCC2N1CCc2ccc(C(F)(F)F)cc2C1` (stereo not shown) [Compound 101], in assay [1], the inhibition at 1 µM was 75% and the inhibition at 10 µM came to 79%.

Consider `CCc1cccc(CC)c1-c1cc(OC)c2c(n1)CCCC2Nc1ccccc1C(=O)O` (stereo not shown) [Compound 33], for which the IC50 in assay [2] is 414 nM. On the same count and under the same terms, the result for `CCc1cccc(CC)c1-c1cc(O)c2c(n1)CCCC2Nc1cc(O)ccc1C` (stereo not shown) [Compound 146] reads more than 10000 nM; that for `CCc1cccc(CC)c1-c1cc(OC)c2c(n1)CCCC2(C)Nc1cc(OC)ccc1C` (stereo not shown) [Compound 140], more than 10000 nM. On to `CCc1cccc(CC)c1-c1cc(OC)c2c(n1)CCC[C@H]2N(CC)c1cccc2ccccc12` [Compound 4], for which, in assay [1], the inhibition at 1 µM amounted to 94%, the inhibition at 10 µM came out at 95%, the “[125I]-C5a Binding % Inhibition 1 μM” value is given as 99% and the “[125I]-C5a Binding % Inhibition 10 μM” value was 101%. Turning to `CCc1cccc(CC)c1-c1cc(OC(C)C)c2c(n1)CCCC2Nc1cc(OC)ccc1C` (stereo not shown) [Compound 18], the half-inhibitory concentration (IC50) in assay [2] was 137 nM. On to `CCc1cccc(CC)c1-c1cc(OC)c2c(n1)CCCC2Nc1ccc(F)cc1CO` (stereo not shown) [Compound 7], for which, in assay [2], the IC50 stood at 53 nM.

With `CCCC1(Nc2cc(OC)ccc2C)CCCc2nc(-c3c(CC)cccc3CC)cc(OC)c21` (racemic) [Compound 70, (±)-[2-(2,6-Diethyl-phenyl)-4-methoxy-5-propyl-5,6,7,8-tetrahydro-quinolin-5-yl]-(5-methoxy-2-methyl-phenyl)-amine], the IC50 in assay [2] came out at 3470 nM.

Consider `CCN(c1cccc2ccccc12)C1CCCc2nc(-c3c(C)noc3C)cc(OC)c21` (stereo not shown) [Compound 151], for which, in assay [2], the IC50 was more than 10000 nM.

As to `CCc1cccc(CC)c1-c1cc(OC)c2c(n1)CCCC2N(C)c1cccc2c(OC)cccc12` (stereo not shown) [Compound 118], in assay [1], the inhibition at 1 µM was determined as 71% and the inhibition at 10 µM is 77%. For the molecule `CCN(c1cccc2ccccc12)C1CCCc2nc(-c3c(Cl)cccc3OC)cc(OC)c21` (stereo not shown) [Compound 13], the concentration for half-maximal inhibition (IC50) in assay [2] is 109 nM.

In the case of `CCc1cccc(CC)c1-c1cc(CC)c2c(n1)CCCC2N(CC)c1cccc2ccccc12` (stereo not shown) [Compound 23], the IC50 in assay [2] amounted to 191 nM. Turning to `CCc1cccc(CC)c1-c1cc(OC)c2c(n1)CCCC2Nc1cccc2ccccc12` (stereo not shown) [Compound 132], in assay [1], the “[125I]-C5a Binding % Inhibition 1 μM” value turned out to be 12% and the “[125I]-C5a Binding % Inhibition 10 μM” value was 34%. Regarding `CCc1cccc(CC)c1-c1cc(CC)c2c(n1)CCCC2Nc1cc(OC)ccc1C` (racemic) [Compound 25, (±)-[2-(2,6-Diethyl-phenyl)-4-ethyl-5,6,7,8-tetrahydro-quinolin-5-yl]-(5-methoxy-2-methyl-phenyl)-amine], the IC50 in assay [2] stood at 244 nM. For the molecule `COc1cc(-c2c(C)cccc2C)nc2c1C(N(C)c1c(C)cccc1C)CCC2` (stereo not shown) [Compound 114], in assay [1], the inhibition at 1 µM came out at 63% and the inhibition at 10 µM amounted to 73%.

As to `CCN(c1cccc2ccccc12)C1CCCc2nc(-c3ccccc3-c3ccccc3)cc(OC)c21` (stereo not shown) [Compound 107], in assay [1], the inhibition at 1 µM is 76% and the inhibition at 10 µM worked out at 84%. Take `CCc1cccc(CC)c1-c1cc(OC)c2c(n1)CCCC2Nc1cc(Cl)ccc1CO` (stereo not shown) [Compound 3]: the IC50 in assay [2] stood at 26 nM. On to `CCc1cccc(CC)c1-c1cc(OC)c2c(n1)CCCC2Nc1ccccc1CN` (stereo not shown) [Compound 75], for which the IC50 in assay [2] is 4960 nM. Same read-out and setting: under `CCc1cccc(CC)c1-c1cc(OC)c2c(n1)CCCC2Nc1cc(C(F)(F)F)ccc1CO` (stereo not shown) [Compound 2] stands 22 nM; under `CCc1cccc(CC)c1-c1cc(OCCN(C)C)c2c(n1)CCCC2Nc1cc(OC)ccc1C` (stereo not shown) [Compound 62], 2320 nM. With `CCc1cccc(CC)c1-c1cc(OC)c2c(n1)CCCC2Nc1cccc2ccccc12` (stereo not shown) [Compound 103], in assay [1], the “[125I]-C5a Binding % Inhibition 1 μM” value worked out at 48% and the “[125I]-C5a Binding % Inhibition 10 μM” value amounted to 61%. Regarding `CCc1cccc(CC)c1-c1cc(OC(C)C)c2c(n1)CCCC2Nc1ccccc1CCO` (stereo not shown) [Compound 1], the IC50 in assay [2] amounted to 7.3 nM. Consider `CCc1cccc(CC)c1-c1cc(OC)c2c(n1)CCCC2Nc1cccc(CO)c1` (stereo not shown) [Compound 142], for which the IC50 in assay [2] was more than 10000 nM. On to `CCN(c1cccc2ccccc12)C1CCCc2nc(-c3cccnc3)cc(OC)c21` (stereo not shown) [Compound 136], for which, in assay [1], the inhibition at 1 µM is 2% and the inhibition at 10 µM was determined as 35%. Regarding `CCc1cccc(CC)c1-c1cc(OC)c2c(n1)CCCC2Nc1ccccc1C` (stereo not shown) [Compound 46], in assay [1], the inhibition at 1 µM worked out at 81% and the inhibition at 10 µM turned out to be 87%. With `CCc1cccc(CC)c1-c1cc(OC)c2c(n1)CCCC2NCc1ccccc1N` (stereo not shown) [Compound 145], the IC50 in assay [2] is more than 10000 nM.

B1: C5a: anaphylatoxin C5a, 74-amino acid N-terminal fragment of complement factor C5; recombinant human C5a (Sigma), radioligand [125I]-C5a (protein, UniProt P01031 678-751, looked up)
C5a anaphylatoxin: TLQKKIEEIAAKYKHSVVKKCCYDGACVNNDETCEQRAARISLGPRCIKAFTECCVVASQLRANISHKDMQLGR
modifications: C5a anaphylatoxin also 125I-labelled radioligand
As for B1, in assay [1] (read-out: C5a Kd, Kd of C5a used for the Ki calculation), the Kd (usually the concentration at which binding is half-saturated) is 0.324 nM.

These data come from patent publication US20090048295A1, “SUBSTITUTED 5,6,7,8-TETRAHYDROQUINOLINE DERIVATIVES, COMPOSITIONS, AND METHODS OF USE THEREOF” (priority 2007, published 2009).
